This note sets out measurements from US8211929B2, “Pyrimidine derivatives as kinase modulators and method of use” (Exelixis, Inc., priority 2004, dated 2012).

As a reminder, the IC50 is the midpoint of a concentration-inhibition curve.

For assay [1], the target named is T1, IGF 3P (Homo sapiens, UniProt P08069).
T1 construct: human IGF1R kinase domain residues M954-C1367; made in house; host or cells: baculovirus expression (insect cells)
Briefly: IGF1R kinase assay (LCCA), IGF 3P. It counts as biochemical. An outline of the steps:
(§1)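 Read-out is percent ATP remaining, detected by luciferase-luciferin luminescence after a 2 h ambient reaction. Reaction contained 4 nM IGF1R kinase domain (residues M954-C1367, baculovirus-made), 3 μM ATP (near KM), 4 μM poly EY, pH 7.5 with Mg2+/Mn2+. Ten inhibitor concentrations; IC50 by Hill-type curve fit.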

Assay [2] concerns the target T2, (Homo sapiens, UniProt P08069).
T2 construct: human IGF1R kinase domain residues M954-C1367; made in house; host or cells: baculovirus expression (insect cells)
Briefly: IGF1R kinase assay (LCCA), IGF 0P. The class given is biochemical. The procedure, abridged: as §1

Where two headings read alike, the source gives them in different places.

T1 sequence (P08069 954-1367): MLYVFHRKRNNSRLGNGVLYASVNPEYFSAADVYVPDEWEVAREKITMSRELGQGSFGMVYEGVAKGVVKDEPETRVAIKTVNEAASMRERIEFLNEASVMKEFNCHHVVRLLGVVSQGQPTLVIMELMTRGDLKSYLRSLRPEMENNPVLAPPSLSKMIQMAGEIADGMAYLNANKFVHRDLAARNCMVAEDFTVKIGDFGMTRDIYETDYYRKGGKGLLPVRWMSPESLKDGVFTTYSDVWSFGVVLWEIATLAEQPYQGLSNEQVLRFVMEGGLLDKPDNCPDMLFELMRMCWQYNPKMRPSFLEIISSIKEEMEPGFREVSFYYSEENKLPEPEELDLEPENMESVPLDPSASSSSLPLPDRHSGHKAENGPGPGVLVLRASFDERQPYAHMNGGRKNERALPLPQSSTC
T2 sequence (P08069 954-1367): as above

For `Cc1cc(Nc2cc(C)nc(NCc3cc(-c4ccccc4)no3)n2)[nH]n1` [Example 528], the IC50 in assay [1] (IGF1R kinase LCCA assay) and in assay [2] (IGF1R kinase LCCA assay) was 50 to 500 nM in each case.
Regarding `Brc1cnc(Nc2ccc(N3CCNCC3)cc2)nc1Nc1cc(C2CC2)n[nH]1` [Example 255], the IC50 is 500 to 5000 nM in assay [1] (IGF1R kinase LCCA assay) and greater than 5000 nM in assay [2] (IGF1R kinase LCCA assay).
For the molecule `Cc1cc(Nc2cc(C3CC3)[nH]n2)nc(NCc2cc(-c3ccc(F)cn3)no2)n1` [Example 639, N^4-(5-cyclopropyl-1H-pyrazol-3-yl)-N^2-{[3-(5-fluoropyridin-2-yl)isoxazol-5-yl]methyl}-6-methylpyrimidine-2,4-diamine], the IC50 in assay [1] and in assay [2] was 500 to 5000 nM each time.
Regarding `CC(C)c1cc(CNc2nc(Nc3cc(C4CC4)[nH]n3)cc(N3C[C@H]4C[C@@H]3CN4Cc3ccccc3)n2)on1` [Example 636, N^4-(5-cyclopropyl-1H-pyrazol-3-yl)-N^2-{[3-(1-methylethyl)isoxazol-5-yl]methyl}-6-[(1R,4R)-5-(phenylmethyl)-2,5-diazabicyclo[2.2.1]hept-2-yl]pyrimidine-2,4-diamine], the IC50 was less than 50 nM in assay [1] (IGF 3P) and 50 to 500 nM in assay [2] (IGF 0P).
`Cc1cc(Nc2cc(C3CC3)[nH]n2)nc(NCc2cc(C(=O)N3CCN(C)CC3)no2)n1` [Example 555]: the IC50 in assay [1] (IGF1R kinase LCCA assay) and in assay [2] (IGF1R kinase LCCA assay) was 500 to 5000 nM throughout.
For `CN1CCN(c2cc(Nc3cc(C4CC4)n[nH]3)nc(NCc3cc(-c4ccc(F)cc4)no3)n2)CC1` [Example 605, N^4-(3-cyclopropyl-1H-pyrazol-5-yl)-N^2-{[3-(4-fluorophenyl)isoxazol-5-yl]methyl}-6-(4-methylpiperazin-1-yl)pyrimidine-2,4-diamine], the half-maximal inhibitory concentration (IC50) in assay [1] is less than 50 nM; in assay [2], 50 to 500 nM.
As to `Clc1ccccc1Nc1nc(Nc2cc(C3CC3)n[nH]2)c2nc[nH]c2n1` [Example 210], the values for the IC50 in assay [1] (IGF1R kinase LCCA assay) and in assay [2] (IGF1R kinase LCCA assay) were 500 to 5000 nM and 50 to 500 nM, respectively.
On the same counts, the results for `Cc1ncc(CNc2ncc(Br)c(Nc3cc(C4CC4)[nH]n3)n2)s1` [Example 135] are 50 to 500 nM and 500 to 5000 nM.
The matching figures for `Brc1cnc(Nc2ccccc2I)nc1Nc1cc(C2CC2)n[nH]1` [Example 96]: 50 to 500 nM and 50 to 500 nM.
The matching figures for `CCN(CC)CCCNc1nc(Nc2cc(C3CC3)n[nH]2)c(Cl)c(Nc2ccccc2Cl)n1` [Example 160]: 500 to 5000 nM and greater than 5000 nM.
With `Brc1cnc(NC2CCc3ccccc32)nc1Nc1cc(C2CC2)[nH]n1` (stereo not drawn) [Example 25], the IC50 in assay [1] (IGF1R kinase LCCA assay) was 500 to 5000 nM; in assay [2] (IGF1R kinase LCCA assay), 50 to 500 nM.
With `CN1CCN(c2cc(Nc3cc(C4CC4)[nH]n3)nc(NCc3cc(-c4nccs4)no3)n2)CC1` [Example 648, N^4-(5-cyclopropyl-1H-pyrazol-3-yl)-6-(4-methylpiperazin-1-yl)-N^2-{[3-(1,3-thiazol-2-yl)isoxazol-5-yl]methyl}pyrimidine-2,4-diamine], the IC50 was less than 50 nM in assay [1] and 50 to 500 nM in assay [2].
`Brc1cnc(NCc2cnn(-c3ccccc3)n2)nc1Nc1cc(C2CC2)n[nH]1` [Example 266]: the IC50 in assay [1] (IGF1R kinase LCCA assay) was greater than 5000 nM; in assay [2] (IGF1R kinase LCCA assay), 500 to 5000 nM.
The matching figures for `CC(C)c1cc(CNc2nc(NCCN3CCN(C)CC3)cc(Nc3cc(C(C)C)[nH]n3)n2)on1` [Example 558]: less than 50 nM and 50 to 500 nM.
As to `CC(C)(C)c1cc(Nc2nc(NCc3cc(-c4ccccc4)no3)ncc2Br)n[nH]1` [Example 16], the IC50 in assay [1] (IGF1R kinase LCCA assay) lay within 500 to 5000 nM; in assay [2] (IGF1R kinase LCCA assay), 50 to 500 nM.
The matching figures for `Clc1cc(Cl)cc(Nc2ncc(Br)c(Nc3cc(C4CC4)n[nH]3)n2)c1` [Example 303]: greater than 5000 nM and greater than 5000 nM.
The matching figures for `COc1cc(Nc2nccc(Nc3cc(C4CC4)n[nH]3)n2)cc(OC)c1` [Example 203]: 500 to 5000 nM and 500 to 5000 nM.
For `Clc1cc(Nc2ncc(Br)c(Nc3cc(C4CC4)n[nH]3)n2)cc(Cl)c1Cl` [Example 325], the IC50 in assay [1] (IGF1R kinase LCCA assay) and in assay [2] (IGF1R kinase LCCA assay) was greater than 5000 nM throughout.
